# Laboratory results taken from US10639287B2, “Compounds for the treatment of mitochondrial diseases” (UNIVERSITE PARIS-SUD, priority 2014, dated 2020).
# Assays:
# [1] = tested on: neuronal cybrids derived from a MELAS patient (m.3243A>G tRNA^Leu mutation); experiment: Lactate production of MELAS neuronal cybrids; assay type: cell-based, human; conditions: 1 μM or 300 nM, 48 hours
# Protocol: The increase in the lactate production is the result of a toxicity of the drug used, but also of a mitochondrial dysfunction (energy deficiency) present in MELAS syndrome.
# (§1) Neuronal cybrid lines carrying the MELAS mutation and the parental control line were grown in sterile culture flasks and incubated at 37° C. with 5% CO2 in a medium composed of DMEM with 1.5 g/L glucose, 2 mM L-glutamine and supplemented with 10% foetal bovine serum as well as uridine (5 μg/ml) and pyruvate (10 μg/mL). The cells were harvested by trypsinisation in exponential phase and were used for subsequent biochemical or molecular mitochondrial analyses.
# (§2) The MELAS neuronal cybrid line carrying the mutation seemingly in the homoplasmic state (i.e. reaching almost 100% MELAS mutation) and the SHSY-5Y parental control line were used for measurements of enzyme activities. […] These cell pellets were then analysed by spectrophotometry with measurement of the different mitochondrial biochemical activities, particularly the activity of citrate synthase and the activity of complex I of the respiratory chain. […]
# The lactate concentration of the culture medium for neuronal cybrid and parental cells was determined by spectrophotometry using an enzymatic kit (Bohringer) on a Hitachi-Roche apparatus (Roche Diagnostics GmbH). […]
# [2] = tested on: complex I in neuronal cybrids derived from a MELAS patient (m.3243A>G tRNA^Leu mutation); experiment: Ratio of complex I/citrate synthase activities in MELAS neuronal cybrids; assay type: cell-based, human; conditions: 1 μM or 300 nM, 48 hours
# Protocol: The mutant MELAS neuronal transmitochondrial line, which is the result of the fusion of the immortalised neuoroblastoma parental line SHSY-5Y with fibroblasts carrying the mutation m.3243A>G, was created in the laboratory of Prof. Procaccio.
# as §1, with “The cells were harvested by trypsinisation in exponential phase and were used for subsequent biochemical or molecular mitochondrial analyses.” left out
# as §2
# The enzymatic activities were measured according to the protocol described in Medjda et al, 2009 (Medja F, Allouche S, Frachon P, Jardel C, Malgat M, Mousson de Camaret B, Slama A, Lunardi J, Mazat J P, Lombès A. Development and implementation of standardized respiratory chain spectrophotometric assays for clinical diagnosis. Mitochondrion. 2009 September; 9(5):331-9).
smiles,measurement,setting,value
CCCCCCCN(CC)CCCC(O)c1ccc(NS(C)(=O)=O)cc1 (centres unmarked) [ibutilide],production of lactate,[1],decreased
same,activity of complex I (ratio complex I/citrate synthase),[2],increased
